We go through six molecules from paper PMC9571953, “Discovery of New VEGFR-2 Inhibitors: Design, Synthesis, Anti-Proliferative Evaluation, Docking, and MD Simulation Studies” (Molecules, 2022).

A word on the IC50: it is the concentration at which inhibition is half-maximal.

Experiment [1] relates to interleukin 6 (IL6). Description: In vitro immunomodulatory assay, IL6. The format is cell-based. The note with it: HCT-116 cells. As to the method:
(§1) The immunomodulatory potentialities of congeners 6 and 7 on HCT-116 cells was also assayed. Two well-defined immunity markers, human tumor necrosis factor alpha (TNF-α), and interleukin 6 (IL6), were measured following the treatment with each compound. In addition, dexamethasone was co-assayed as a reference drug. A considerable reduction in both markers was noticed regarding the two compounds (Table 4).

Experiment [2] has as its system human tumor necrosis factor alpha (TNF-α). The experiment is described as follows: In vitro immunomodulatory assay, TNF-α. It counts as cell-based. The note with it: HCT-116 cells. As to the method: as §1
The subject of experiment [3] is HCT-116 cells. The experiment is described as follows: Annexin-V/propidium iodide apoptosis assay. The format is cell-based. The note with it: HCT-116, 9.3 µM of compound 6, 48 h. As to the method:
Both extrinsic and intrinsic apoptosis induced by compound 6 in HCT-116 cells was assayed through Annexin-V/propidium iodide staining assay. Marked induction of both early and late apoptosis was observed upon treating HCT-116 cells with 6. […]
Apoptotic activity of compound 6 was evaluated using Annexin V-FITC/PI apoptosis detection kit.
HCT-116 cells ([…]) were seeded and incubated with compound 6 for 48 h, trypsinized, collected and washed with phosphate-buffered saline (PBS) several times; […] cells were stained with […]
Annexin V fluorescein isothiocyanate (FITC) and counterstained with propidium iodide (PI) for 15 min at 37 °C in the dark using the apoptosis detection kit (BD Biosciences, San Jose, CA) according to the manufacturer's protocol. Then, Annexin V-FITC and PI binding were analyzed by a FACS […]
Crystal structure of VEGFR-2 [PDB ID: 2OH4, resolution: 2.07 Å] was obtained from Protein Data Bank. The docking investigation was accomplished using MOE 2014 software. At first, the crystal structure of VEGFR-2 was prepared by removing water molecules. Only one chain was retained beside the co-crystallized ligand. Then, the selected chain was protonated and subjected to minimization of energy process. Next, the active site of the target protein was defined.
Structures of the synthesized compounds and sorafenib (as reference standard) were drawn using ChemBioDraw Ultra 14.0 and saved as MDL-SD format. Such file was opened using MOE to display the 3D structures which were protonated and subjected to energy minimization. Formerly, validation of the docking process was performed by docking the co-crystallized ligand against the isolated pocket of active site. The produced RMSD value indicated the validity of process. Finally, docking of the tested compounds was done through the dock option inserted in compute window.
For each docked molecule, 30 docked poses were produced using ASE for scoring function and force field for refinement. The results of the docking process were then visualized using Discovery […]
ADMET descriptors (absorption, distribution, metabolism, excretion and toxicity) of the compounds were determined using Discovery studio 4.0. At first, the CHARMM force field was applied then the tested compounds were prepared and minimized according to the preparation of small molecule protocol. Then ADMET descriptors protocol was applied to carry out these studies.
The toxicity parameters of the synthesized compounds were calculated using Discovery studio 4.0.
Sorafenib was used as a reference drug. At first, the CHARMM force field was applied then the […]

In experiment [4] the test system is HCT-116 cells. Description: Flow cytometry cell cycle analysis (PI staining). The format is cell-based. The note with it: HCT-116, 9.3 µM of compound 6, 48 h. How it is done: It was clear from the obtained results that member 6 arrested cell cycle progression at the phase G2-M, as it caused a significant elevation of the cell levels by 35.84% versus 12.91% accumulation of the control cells.
Were conducted propidium iodide (PI) staining and flow cytometry analysis.. In-depth discussions have been held in the Supplementary Data. […]
and were expressed as means ± SD. […]
HCT-116 cells were grown in six-well plates (each one contains 2 x 10^5 cells per well) containing 10% foetal bovine serum and incubated for 24 h at 37 °C and 5% CO2. The medium was replaced with (DMSO 1% v/v) containing the 9.3 µM of compound 6, then incubated for 48 h, collected and washed with cold phosphate buffered saline (PBS). After fixation of the collected cells with ice-cold […] ethanol (70%), the cells were rinsed with PBS then stained with the DNA fluorochrome PI, kept for 15 min at 37 °C. Then samples were analyzed with a FACS Caliber flow cytometer. […]
For orientation: A flow cytometer gives signals particle by particle.

For experiment [5], the system named is HCT-116. The experiment is described as follows: In vitro anti-proliferative activity (MTT). It counts as cell-based. The note with it: Homo sapiens, mean ± S.D. of three experiments, read-out: In Vitro Cytotoxicity IC50 HCT-116. How it is done: (§2) The latter cells were selected owing to their VEGFR-2 overabundance.
(§3) Was conducted the experiment by the MTT procedure. In-depth discussions have been held in the Supplementary Data. […]
(§4) ✓ In vitro anti-proliferative activity against HepG-2 and HCT-116
(§5) The cells were cultured in RPMI-1640 medium supplemented with 10% fetal bovine serum (FBS), penicillin (100 unit /mL) and streptomycin sulphate (100µg/mL) at 37 °C in a 5% CO2 incubator.
(§6) Then, cells were dropped in 96-well plates at a density of 3-8 × 10^3 cells/well and incubated for two days in a 5% CO2 incubator at 37 °C. Then, the cells were treated with the synthesized compounds and the cell cultures were continued incubated for 24 h. However, Different concentrations of the compound under test (0.0, 5.0, 12.5, 25.0 and 50 mg/ml) were added to the cell monolayer. Then, (3-[4,5-dimethylthiazol-2-yl]- 2,5-diphenyltetrazolium bromide) MTT solution (20 µl, 5mg/mL) was added to each well and incubated for additional 4 h. The formed purple crystals of MTT-formazan were dissolved in 100 µl DMSO each well; the absorbance of each well was measured at 570 nm using a plate reader (EXL 800, USA). All compounds were tested three times. The relative cell viability in percentage was calculated. The results for IC50 values of the active compounds are […]
(§7) The data represented the mean of three independent experiments in triplicate and were expressed as means ± SD. […]

Experiment [6] concerns HepG-2. Description: In vitro anti-proliferative activity (MTT). It counts as cell-based. The note with it: Homo sapiens, HepG2, mean ± S.D. of three experiments, read-out: In Vitro Cytotoxicity IC50 HepG-2. How it is done:
as §2, §3, §4, §5, §6, §7

Experiment [7] addresses Human VEGFR-2 (Homo sapiens, UniProt P35968). Description: In vitro VEGFR-2 enzyme inhibition assay (ELISA kit).
Procedure: The ability of the four synthesized congeners to inhibit the VEGFR-2 enzyme in HCT-116 cells was also evaluated.
✓ Assessment of VEGFR-2 inhibition
Experiment [8] deals with VEGFR-2. The note with it: Reported nicotinamide VEGFR-2 inhibitor, Figure 2; no reference given; cited from earlier work.

Human VEGFR-2, sequence (P35968 20-1356): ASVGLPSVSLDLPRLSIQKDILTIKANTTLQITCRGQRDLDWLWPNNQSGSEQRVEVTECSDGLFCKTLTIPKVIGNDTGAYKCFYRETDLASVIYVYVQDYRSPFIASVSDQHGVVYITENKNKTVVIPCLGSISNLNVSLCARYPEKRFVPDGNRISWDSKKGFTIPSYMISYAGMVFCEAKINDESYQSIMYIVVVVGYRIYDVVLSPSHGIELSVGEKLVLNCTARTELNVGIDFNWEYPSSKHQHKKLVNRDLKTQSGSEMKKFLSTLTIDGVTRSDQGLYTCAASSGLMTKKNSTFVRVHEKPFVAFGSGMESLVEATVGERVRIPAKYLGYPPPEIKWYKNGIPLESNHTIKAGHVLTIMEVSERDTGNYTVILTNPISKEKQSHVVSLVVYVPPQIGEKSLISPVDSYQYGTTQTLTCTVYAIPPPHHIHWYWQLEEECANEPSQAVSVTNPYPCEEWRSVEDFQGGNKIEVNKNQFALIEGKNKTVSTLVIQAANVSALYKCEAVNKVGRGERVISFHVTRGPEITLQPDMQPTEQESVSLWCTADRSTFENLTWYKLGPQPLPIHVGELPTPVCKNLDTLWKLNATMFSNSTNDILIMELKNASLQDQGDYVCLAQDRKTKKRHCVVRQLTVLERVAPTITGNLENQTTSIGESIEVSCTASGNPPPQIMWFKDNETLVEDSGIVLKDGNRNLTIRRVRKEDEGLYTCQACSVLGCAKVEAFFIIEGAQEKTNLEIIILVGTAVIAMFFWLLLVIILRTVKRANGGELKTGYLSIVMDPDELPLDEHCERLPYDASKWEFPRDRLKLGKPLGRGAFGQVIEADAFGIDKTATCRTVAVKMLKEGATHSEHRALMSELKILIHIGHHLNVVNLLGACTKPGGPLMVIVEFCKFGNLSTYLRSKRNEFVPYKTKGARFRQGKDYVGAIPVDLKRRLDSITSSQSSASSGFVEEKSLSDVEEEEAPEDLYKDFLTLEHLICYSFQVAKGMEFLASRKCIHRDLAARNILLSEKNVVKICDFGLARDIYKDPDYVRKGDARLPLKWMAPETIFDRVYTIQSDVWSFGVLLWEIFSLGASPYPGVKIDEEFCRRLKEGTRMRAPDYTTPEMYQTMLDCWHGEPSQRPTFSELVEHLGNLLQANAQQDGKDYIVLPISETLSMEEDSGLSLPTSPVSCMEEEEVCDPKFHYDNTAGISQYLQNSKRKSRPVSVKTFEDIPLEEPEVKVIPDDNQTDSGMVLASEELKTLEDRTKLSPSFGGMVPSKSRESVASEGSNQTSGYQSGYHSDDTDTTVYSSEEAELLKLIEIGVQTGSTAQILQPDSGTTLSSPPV

Turning to `O=C(NN=Cc1ccc(Cl)cc1)c1ccc(NC(=O)c2cccnc2)cc1` [Compound 6, N-{4-[2-(4-Chlorobenzylidene)hydrazine-1-carbonyl]phenyl}nicotinamide], the “% Inhibition of IL6 pg/mL” value in experiment [1] was determined as 57.34%. In experiment [2], the “% Inhibition of TNF-α pg/mL” value was determined as 66.42%. In experiment [3], the “Apoptosis Early” value was 5.78%, the “Apoptosis Late” value amounted to 9.75%, the “Apoptosis Total” value was 16.93 and the Necrosis came to 1.40%. In addition, in experiment [4], the “% G0-G1” value was 36.71%, the “% G2-M” value worked out at 35.84%, the “% Pre-G1” value is 16.93% and the “% S” value amounted to 27.45%. Further, the IC50 in experiment [5] came to 9.3 ± 0.02 µM. Moreover, the IC50 in experiment [6] came out at 7.8 ± 0.025 µM. Moreover, in experiment [7], the IC50 is 60.8 ± 3.81 nM.

As to `O=C(NN=Cc1ccccc1O)c1ccc(NC(=O)c2cccnc2)cc1` [Compound 7, N-{4-[2-(2-Hydroxybenzylidene)hydrazine-1-carbonyl]phenyl}nicotinamide], the “% Inhibition of IL6 pg/mL” value in experiment [1] amounted to 52.75%. Moreover, the “% Inhibition of TNF-α pg/mL” value in experiment [2] was found to be 60.54%. Besides, the values for the IC50 in experiment [5], in experiment [6] and in experiment [7] were 15.9 ± 0.041 µM, 10.2 ± 0.035 µM and 129 ± 8.32 nM, respectively.

For the molecule `O=C(NN=Cc1c[nH]c2ccccc12)c1ccc(NC(=O)c2cccnc2)cc1` [Compound 8, N-{4-[2-((1H-Indol-3-yl)methylene)hydrazine-1-carbonyl]phenyl}nicotinamide], the IC50 in experiment [5] was 20.5 ± 0.052 µM; in experiment [6] it was 16.03 ± 0.051 µM; in experiment [7], 230 ± 10.2 nM.

As for `CC(=NNC(N)=O)c1ccc(NC(=O)c2cccnc2)cc1` [Compound 10, N-{4-[1-(2-Carbamoylhydrazineylidene)ethyl]phenyl}nicotinamide], the results for the IC50 in experiment [5], in experiment [6] and in experiment [7] were 24.2 ± 0.06 µM, 17.6 ± 0.048 µM and 63.6 ± 3.31 nM, respectively.

Consider `C[C@@H]1C[C@H]2[C@@H]3CCC4=CC(=O)C=C[C@]4(C)[C@@]3(F)[C@@H](O)C[C@]2(C)[C@@]1(O)C(=O)CO` [Dexamethasone, reference compound], for which the “% Inhibition of IL6 pg/mL” value in experiment [1] stood at 93.15%. Besides, in experiment [2], the “% Inhibition of TNF-α pg/mL” value was 82.47%.

Turning to `C/C(=N\Nc1ccccc1)c1ccc(NC(=O)c2cccnc2)cc1` [II], the IC50 in experiment [8] is 23.1 nM.
